Assay results published in patent publication US20260138961A1, “MODULATORS OF MITOCHONDRIAL DNA REPLICATION” (Pretzel Therapeutics, Inc., priority 2022, published 2026).

Molecular target: T1, wild type human POLγ (POLγA:WT) (Homo sapiens, UniProt P54098)
T1 sequence (P54098 1-1239): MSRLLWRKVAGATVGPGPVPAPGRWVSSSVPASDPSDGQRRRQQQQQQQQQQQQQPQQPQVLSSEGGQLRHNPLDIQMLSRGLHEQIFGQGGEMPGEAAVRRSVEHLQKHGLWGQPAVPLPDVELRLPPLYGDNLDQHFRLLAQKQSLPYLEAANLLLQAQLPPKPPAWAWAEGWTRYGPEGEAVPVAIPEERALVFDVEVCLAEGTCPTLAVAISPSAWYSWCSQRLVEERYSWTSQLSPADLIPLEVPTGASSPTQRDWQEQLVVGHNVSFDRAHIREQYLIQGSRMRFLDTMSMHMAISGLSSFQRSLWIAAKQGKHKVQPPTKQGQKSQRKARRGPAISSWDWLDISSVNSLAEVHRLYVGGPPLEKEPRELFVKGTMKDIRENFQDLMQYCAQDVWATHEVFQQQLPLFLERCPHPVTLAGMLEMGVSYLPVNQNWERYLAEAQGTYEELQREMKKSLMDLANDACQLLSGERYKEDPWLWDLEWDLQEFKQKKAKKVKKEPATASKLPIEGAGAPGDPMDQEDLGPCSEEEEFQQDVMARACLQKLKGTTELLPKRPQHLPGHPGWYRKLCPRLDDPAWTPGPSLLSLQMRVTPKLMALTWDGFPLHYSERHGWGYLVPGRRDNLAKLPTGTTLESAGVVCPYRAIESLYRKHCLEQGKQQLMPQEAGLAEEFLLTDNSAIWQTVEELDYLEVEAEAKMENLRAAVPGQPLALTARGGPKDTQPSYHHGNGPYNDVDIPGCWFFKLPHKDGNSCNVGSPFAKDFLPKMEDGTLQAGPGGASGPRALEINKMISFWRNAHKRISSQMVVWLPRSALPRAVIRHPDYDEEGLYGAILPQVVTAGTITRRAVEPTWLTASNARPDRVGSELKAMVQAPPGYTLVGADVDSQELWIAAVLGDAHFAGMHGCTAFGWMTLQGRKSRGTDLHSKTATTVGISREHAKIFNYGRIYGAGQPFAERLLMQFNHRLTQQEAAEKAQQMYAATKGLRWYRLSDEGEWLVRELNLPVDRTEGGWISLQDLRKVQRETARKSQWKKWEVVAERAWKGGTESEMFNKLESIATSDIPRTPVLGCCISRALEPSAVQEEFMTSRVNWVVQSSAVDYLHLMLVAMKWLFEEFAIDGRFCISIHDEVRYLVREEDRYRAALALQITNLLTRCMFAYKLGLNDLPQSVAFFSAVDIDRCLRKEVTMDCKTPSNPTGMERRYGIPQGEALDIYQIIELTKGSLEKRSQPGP
T1 sequence (Q9UHN1 1-485 partner): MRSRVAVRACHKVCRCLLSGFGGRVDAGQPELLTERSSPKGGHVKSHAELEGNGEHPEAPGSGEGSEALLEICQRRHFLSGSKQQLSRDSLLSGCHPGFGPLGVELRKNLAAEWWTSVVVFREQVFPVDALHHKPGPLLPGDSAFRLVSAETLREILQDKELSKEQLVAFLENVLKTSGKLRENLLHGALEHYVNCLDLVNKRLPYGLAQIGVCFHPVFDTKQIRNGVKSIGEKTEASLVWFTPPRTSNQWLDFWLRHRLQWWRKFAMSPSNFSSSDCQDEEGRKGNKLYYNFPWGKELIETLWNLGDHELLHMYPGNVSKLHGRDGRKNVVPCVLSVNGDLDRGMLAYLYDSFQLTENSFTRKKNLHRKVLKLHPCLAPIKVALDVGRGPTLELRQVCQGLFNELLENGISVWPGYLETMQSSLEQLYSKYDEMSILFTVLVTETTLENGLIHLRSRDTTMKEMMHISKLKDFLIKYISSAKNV
Assay: DNA polymerization assay, wild type POLγ
Type: biochemical
Details: 0.1 μM dNTP, read-out: WT AC50 (μM) at 0.1 μM

| AC50 | Structure (SMILES) |
| --- | --- |
| 2 µM | Cc1ccc(C)c(S(=O)(=O)Nc2cccc(C(=O)N3CCOCC3)c2)c1 [Example 29, 2,5-dimethyl-N-(3-(morpholine-4-carbonyl)phenyl)benzenesulfonamide] |
| 1 µM | Cc1cc(S(=O)(=O)Nc2cccc(C(=O)N3CCN(C)C[C@H]3C)c2)c(C)cc1Cl [Example 54, (R)-4-chloro-N-(3-(2,4-dimethylpiperazine-1-carbonyl)phenyl)-2,5-dimethylbenzenesulfonamide] |
| 2 µM | CC(=O)N1CCN(C(=O)c2cccc(NS(=O)(=O)c3cc(C)ccc3C)c2)CC1 [Example 30, N-(3-(4-acetylpiperazine-1-carbonyl)phenyl)-2,5-dimethylbenzenesulfonamide] |

Same assay, conditions: 1 μM dNTP, read-out: WT AC50 (μM) at 1 μM

| AC50 | Structure (SMILES) |
| --- | --- |
| 0.4 µM | COc1ccccc1-c1nc(NS(=O)(=O)c2cc(C)c(Cl)cc2C)cs1 [Example 155, 4-chloro-N-(2-(2-methoxyphenyl)thiazol-4-yl)-2,5-dimethylbenzenesulfonamide] |

Same assay, conditions: 100 μM dNTP, read-out: WT AC50 (μM) at 100 μM

| Structure (SMILES) | AC50 |
| --- | --- |
| Cc1cc(S(=O)(=O)Nc2csc(-c3ccn(C)n3)n2)c(C)cc1Cl [Example 181, 4-chloro-2,5-dimethyl-N-(2-(1-methyl-1H-pyrazol-3-yl)thiazol-4-yl)benzenesulfonamide] | > 10 µM |
| Cc1cc(S(=O)(=O)Nc2csc(C3CCOCC3)n2)c(C)cc1Cl [Example 167, 4-chloro-2,5-dimethyl-N-(2-(tetrahydro-2H-pyran-4-yl)thiazol-4-yl)benzenesulfonamide] | 4 µM |
| Cc1cc(S(=O)(=O)Nc2csc(C(=O)N(CC(N)=O)C3CCCCC3)n2)c(C)cc1Cl [Example 179, N-(2-amino-2-oxoethyl)-4-((4-chloro-2,5-dimethylphenyl)sulfonamido)-N-cyclohexylthiazole-2-carboxamide] | > 10 µM |

Results, then the compound that gave them:

| AC50 | Structure (SMILES) |
| --- | --- |
| > 10 µM | Cc1cc(S(=O)(=O)Nc2cn(-c3ccccc3)cn2)c(C)cc1Cl [Example 169, 4-chloro-2,5-dimethyl-N-(1-phenyl-1H-imidazol-4-yl)benzenesulfonamide] |
| 8 µM | CC[C@@H]1CCCN1C(=O)c1cccc(NS(=O)(=O)c2cc(C)c(Cl)cc2C)c1 [Example 65, (R)-4-chloro-N-(3-(2-ethylpyrrolidine-1-carbonyl)phenyl)-2,5-dimethylbenzenesulfonamide] |
